{
  "source": "patent US9381166B2",
  "about": "(Rigshospitalet, priority 2007, dated 2016)",
  "key": {"hemostatic system [1]": {"system": "hemostatic system", "assay": "TEG MA with combination of adrenergic receptor agonist and antagonists", "assay_type": "in vivo, human", "quoted_text": "FIG. 10: Seven healthy volunteers received 3 doses of adrenaline infusion lasting for 5 minutes each in the following step-wise increasing doses 3.5, 5.0 and 6.0 μg/kg/h. After resting 1 hour, the subjects received 0.15 μg/kg Seloken i.v. and rested again 30 minutes before repeating the step-wise adrenaline infusions. Blood samples were obtained from an arterial catheter at baseline (t=0.0), after each of the first adrenaline doses (t=5.0, t=10.1, t=15.0), at baseline after Seloken administration and rest (t=0.1) and after each of the subsequent adrenaline infusions (t=5.1, t=10.1, t=15.1). The blood was analyzed with TEG as described in FIG. 3 and Example 1. TEG MA values are presented as mean with 95% Cl and analyzed with a 2-way repeated measurements (RM) ANOVA with post hoc Bonferroni adjusted paired t-test of t=0.0 vs. t=5.0, t=10.1, t=15.0, respectively and t=0.1 vs. t=5.1, t=10.1, t=15.1, ***p<0.001.\nHealthy volunteers rested 1 hour before receiving step-wise i.v. administration of adrenaline in the doses 3.5, 5.0 and 6.0 μg/kg/h, five minutes infusion at each dose, as described in FIG. 4. Hereafter the subjects rested for 1 hour and received an antagonist by i.v. infusion propanolol (primarily a β-2 antagonist, 0.15 mg/kg for 10 minutes), n=8, Urapidil (α-1 antagonist, 50 mg) or Seloken (β-1 antagonist 0.15 mg/kg for 10 minutes), n=7. […]"}, "[2]": {"assay": "Hemodynamic monitoring during adrenaline infusion without or with Seloken", "assay_type": "in vivo, human", "from_the_text": "FIG. 11: The healthy subjects described in FIG. 10 were monitored haemodynamically at the same time points as described in FIG. 10. (a) heart rate (HR), (b) cardiac output (CO), (c) stroke volume (SV), (d) invasive blood pressure: mean arterial pressure, MAP) and (d) total peripheral resistance (TPR). […] The conc x treatment is an analysis of the total response/the total pattern, to check whether there is an interaction between concentration and treatment. […] ANOVA: Analysis of variance.\nThe hemodynamic changes comprising heart rate (HR), cardiac output (CO), stroke volume (SV), mean arterial pressure (MAP) and total peripheral resistance (TPR) were monitored during the protocol described in example 7 and FIG. 10."}, "[3]": {"assay": "Plasma potassium concentration before and after adrenaline and Seloken", "assay_type": "in vivo, human", "text": "Plasma K+ concentrations where followed before and after administration of both adrenaline and Seloken (beta blocker)."}, "hemostatic system [4]": {"system": "hemostatic system", "assay": "Thrombelastography (TEG) of arterial whole blood after i.v. infusion in healthy volunteers", "assay_type": "in vivo, human", "experimental": "FIG. 3: Representative TEG profile of healthy volunteers before and after administration of adrenaline. Whole blood was drawn in 1/10 citrate from an arterial catheter. The citrated whole blood sample rested exactly 30 minutes at room temperature before TEG analysis on the Thrombelastograph Hemostasis Analyser, series 5000 (Haemoscope Corp., Skokie, Ill.): One ml of citrated whole blood was transferred to a kaolin vial (Haemoscope Corp.) and gently mixed by inversion 5 times. From the kaolin vial 340 μl was added to a plain TEG cup preloaded with 20 μl of 0.2 M CaCl2 and the analysis started immediately.\nFIG. 4: TEG parameters (a) R, (b) Angle and (c) MA of 30 healthy volunteers after totally 15 minutes of i.v. administration of adrenaline. The subjects were catheterized and rested 60 minutes before administration of adrenaline was commenced. Adrenaline was step-wise infused intravenously for 5 minutes at each of the doses 3.5 μg/kg/h, 5.0 μg/kg/h and 6.0 μg/kg/h. Blood samples were collected from an arterial catheter at baseline (t=0) and immediately after each dose (t=5, t=10 and t=15).\nFIG. 5: TEG MA measured before and after i.v. infusion of noradrenaline at 4.8 μg/kg/h for 15 minutes in 10 healthy volunteers, mean with 95% Cl. MA before and after noradrenaline was compared by a paired t-test with a p-value<0.05 considered statistically significant.\nFIG. 6: TEG MA measured before (t=0) and after i.v. infusion of adrenaline at 4.8 μg/kg/h for 15 minutes (t=15) and 30 minutes after discontinuation of adrenaline administration (t=45). Data presented as mean with 95% Cl.\nA whole blood sample for TEG analysis was drawn into a tube containing citrate (9 volumes of blood into 1 volume of 0.129 M citrate; […] system, BD Biosciences, Plymouth, UK) and rested for exactly 30 minutes before analysis: Coagulation was initiated by kaolin and re-calcified according to the instructions of the manufacturer: Citrated whole blood was added to a kaolin vial and mixed by gently inversion 5 times before transfer to the TEG cup containing calcium chloride (20 μl of 0.2 M CaCl2), which was preloaded into the TEG® cup as published previously [Johansson et al. 2008]. The hemostatic process was recorded by use of a TEG® coagulation analyzer (5000 series, Haemoscope Corporation). Adrenaline was mixed with 0.9% NaCl and infused intravenously.\nFIG. 3 illustrates TEG profiles from a representative volunteer before and after receiving intravenous infusion of adrenaline 3 μg/kg/h for 15 minutes."}, "hemostatic system [5]": {"system": "hemostatic system", "experimental": "FIG. 7: TEG parameters (a) R, (b) Angle and (c) MA measured as described in FIG. 3 and example 1 on blood samples collected from patients infused with adrenaline prior to prostatectomy. Ten patients were anesthetized by propofol and haldid and infused with adrenaline i.v. in the doses 1, 2 and 3 μg/kg/h each for 5 minutes prior to skin incision. Hereafter the patients were prostatectomised according to local protocol. Blood samples were collected from an arterial catheter before adrenaline administration and immediately after each infusion dose (1, 2 and 3 μg/kg/h) and again 1 hour after discontinuation of adrenaline infusion. Statistics used: One-way ANOVA, Friedman Test, and Dunn's Multiple Comparison post hoc test of “before” compared to each of the following points 1, 2, 3 μg/kg/h and 1 hour after termination of adrenaline infusion, *p<0.05, **p<0.01,***p<0.001, ns: non significant.\nPatients undergoing prostatectomy were anaesthetized by propofol and haldid. Prior to skin incision the patients received a step-wise i.v. infusion of adrenaline in the doses 1, 2 and 3 μg/kg/h each for 5 minutes. TEG analyses were performed as described in example 1, exactly 30 minutes after collection of arterial blood. Blood samples were obtained before and after each dose and 1 hour after discontinuation of adrenaline infusion."}, "[6]": {"conditions": "i.v. step-wise 1, 2, 3 μg/kg/h or 3 μg/kg/h for 15 minutes before skin incision, vs 40 control patients", "quoted_text": "The 2 intervention groups were compared to 40 controls also undergoing prostatectomy, whereof 20 underwent surgery prior to the interventions and the last 20 after the intervention. All values including median for each group is depicted. Comparisons between control group and each of the intervention groups was done separately by Mann Whitney test.\nBlood loss of the 10 patients described in example 2 and 10 additional prostatectomy patients receiving a 15 minutes continuous adrenaline infusion of 3 μg/kg/h before skin incision were compared to 40 control patients, not receiving adrenaline, whereof 20 were operated before the interventions and the last 20 subsequently after the intervention (FIG. 8)."}, "[7]": {"conditions": "healthy volunteers, i.v. adrenaline 3 μg/kg/h for 15 minutes (FIG. 3, FIG. 4)"}, "[8]": {"conditions": "prostatectomy patients, step-wise i.v. 1, 2 and 3 μg/kg/h each for 5 minutes"}, "[9]": {"conditions": "in response to adrenaline infusions"}},
  "note": "Read-outs that look alike come from different tables or passages of the source.",
  "data": [
    {"compound": "COCCc1ccc(OCC(O)CNC(C)C)cc1", "note": "(stereo not shown) [Seloken, Metoprolol]", "values": [
      {"measurement": "effect of antagonist on the MA increase after adrenaline", "setting": "hemostatic system [1]; antagonist i.v. 30 minutes before repeated step-wise adrenaline 3.5, 5.0, 6.0 μg/kg/h, Seloken 0.15 mg/kg for 10 minutes", "value": "not affected"},
      {"measurement": "adrenaline-induced increase in SV", "setting": "[2]; after Seloken administration", "value": "not significantly lowered"},
      {"measurement": "adrenaline-induced decrease in TPR", "setting": "[2]; after Seloken treatment", "value": "significantly lower decrease"},
      {"measurement": "adrenaline-induced increase in CO", "setting": "[2]; when Seloken was administered, all adrenaline concentrations", "value": "significantly lower"},
      {"measurement": "adrenaline-induced increase in HR", "setting": "[2]; when Seloken was infused before adrenaline", "value": "practically abrogated/normalized"},
      {"measurement": "drop in plasma potassium concentration after adrenaline", "setting": "[3]; Seloken administered prior to adrenaline", "value": "less"}
    ]},
    {"compound": "CNC[C@H](O)c1ccc(O)c(O)c1", "note": "[adrenaline, (R)-4-(1-hydroxy-2-(methylamino)ethyl)benzene-1,2-diol]", "values": [
      {"measurement": "time until MA returns to baseline after discontinuation of infusion", "setting": "hemostatic system [4]; healthy volunteers, 4.8 μg/kg/h for 15 minutes (FIG. 6)", "value": "≤ 30", "unit": "min"},
      {"measurement": "MA response", "setting": "hemostatic system [4]; healthy volunteers, adrenaline infusion 3.5, 5.0, 6.0 μg/kg/h (FIG. 4c)", "value": "dose-dependent increase"},
      {"measurement": "TEG Angle (thrombin generation)", "setting": "hemostatic system [4]; [7]", "value": "increased"},
      {"measurement": "TEG MA (mechanical clot strength)", "setting": "hemostatic system [4]; [7]", "value": "increased"},
      {"measurement": "TEG R (initiation of the coagulation process)", "setting": "hemostatic system [4]; [7]", "value": "shorter"},
      {"measurement": "pro-hemostatic effect versus dose", "setting": "hemostatic system [5]; 1, 2 and 3 microgram/kg/hour, compared to baseline (FIG. 7)", "value": "dose dependent increase"},
      {"measurement": "pro-hemostatic effect on clot strength (MA) after discontinuation", "setting": "hemostatic system [5]; 60 min after discontinuation of infusion, prostatectomy patients", "value": "abated"},
      {"measurement": "time until MA returns to baseline after discontinuation of infusion", "setting": "hemostatic system [5]; prostatectomy patients (FIG. 7c)", "value": "≤ 60", "unit": "min"},
      {"measurement": "TEG Angle (propagation and thrombin generation)", "setting": "hemostatic system [5]; [8]", "value": "increased"},
      {"measurement": "TEG MA (mechanical strength of the clot)", "setting": "hemostatic system [5]; [8]", "value": "increased"},
      {"measurement": "TEG R (initiation of the coagulation process)", "setting": "hemostatic system [5]; [8]", "value": "decreased"},
      {"measurement": "TEG MA after adrenaline administration", "setting": "hemostatic system [1]; healthy volunteers, step-wise 3.5, 5.0 and 6.0 μg/kg/h (FIG. 10)", "value": "increases"},
      {"measurement": "heart rate (HR)", "setting": "[2]; adrenaline alone, 3.5, 5.0, 6.0 μg/kg/h", "value": "increased HR significantly"},
      {"measurement": "total peripheral resistance (TPR)", "setting": "[2]; all adrenaline doses, with and without Seloken", "value": "significant decrease"},
      {"measurement": "mean arterial pressure (MAP)", "setting": "[2]; any of the adrenaline doses used", "value": "no effects"},
      {"measurement": "cardiac output (CO)", "setting": "[2]; [9]", "value": "increase in CO"},
      {"measurement": "stroke volume (SV)", "setting": "[2]; [9]", "value": "increase in SV"},
      {"measurement": "plasma potassium concentrations following administration", "setting": "[3]; three healthy volunteers", "value": "fell"},
      {"measurement": "perioperative blood loss", "setting": "[6]", "value": "reduced perioperative blood loss significantly"},
      {"measurement": "effect on Lysis AUC after discontinuation", "setting": "fibrinolysis; 30 minutes after discontinuation of infusion (t=45)", "value": "abrogated"},
      {"measurement": "increase of Lysis AUC (resistance against fibrinolysis)", "setting": "fibrinolysis; healthy subjects, step-wise 3.5, 5.0, 6.0 μg/kg/h, t=15 vs t=0, tPA 2.4 nM", "value": 154, "unit": "%"}
    ]},
    {"compound": "NC[C@H](O)c1ccc(O)c(O)c1", "note": "[noradrenaline, 4-(2-Amino-1-hydroxyethyl)benzene-1,2-diol]", "values": [
      {"measurement": "pro-hemostatic effect (TEG MA)", "setting": "hemostatic system [4]; 10 healthy subjects, i.v. 4.8 μg/kg/h for 15 minutes (FIG. 5)", "value": "pro-hemostatic effect"}
    ]}
  ]
}
